# Reference: publication PMC7539012, “Hyperphosphorylated tau aggregation and cytotoxicity modulators screen identified prescription drugs linked to Alzheimer's disease and cognitive functions” (Scientific Reports, 2020)
# Where a name gives a salt, the structure may show the parent alone.
# System: T1, 1N4R p-tau
# T1 construct: made in house; host or cells: E. coli (PIMAX system)
# Experiment: p-tau aggregation modulator screen of 1280-compound library (ThS fluorescence net change over 16 h);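 for ThS net change: 30 µM compound with 6 µM p-tau over 16 h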
# Assay type: biochemical
# Design: key to PTAI>3SD: *: PTAI>3SD
# Conditions: not given
row,Compound,ThS net change
1,CN(C)C(=O)C(CCN1CCC(O)(c2ccc(Cl)cc2)CC1)(c1ccccc1)c1ccccc1 [Loperamide hydrochloride],326
2,CC(C)(C)NC(=O)[C@@H]1CN(Cc2cccnc2)CCN1C[C@@H](O)C[C@@H](Cc1ccccc1)C(=O)N[C@H]1c2ccccc2C[C@H]1O [Indinavir sulfate],457
3,CCOC(=O)c1cncn1[C@H](C)c1ccccc1 [Etomidate],447
4,Nc1nc2[nH]cc(CCc3ccc(C(=O)N[C@@H](CCC(=O)O)C(=O)O)cc3)c2c(=O)[nH]1 [Pemetrexed disodium],441
5,CC(C)C[C@H]1C(=O)N2CCC[C@H]2[C@]2(O)O[C@](NC(=O)[C@@H]3C=C4c5cccc6[nH]c(Br)c(c56)C[C@H]4N(C)C3)(C(C)C)C(=O)N12.CS(=O)(=O)O [Bromocryptine mesylate],296
6,CCC1(c2cccc(O)c2)CCCCN(C)C1 (centres unmarked) [Meptazinol hydrochloride],462
7,CC(C)c1c(CN(C)C(C)Cc2ccccc2)n(C)n(-c2ccccc2)c1=O (centres unmarked) [Famprofazone],477

# Same assay, conditions: 1280-compound library screen; ThS fluorescence net change over 16 h
row,Compound,ThS net change
1,O=C(O)CCC(=O)Nc1ccc(S(=O)(=O)Nc2nccs2)cc1 [Succinylsulfathiazole],382
2,C=C(CC)C(=O)c1ccc(OCC(=O)O)c(Cl)c1Cl [Ethacrynic acid],412
3,CC1CC(OC(=O)C(O)c2ccccc2)CC(C)(C)N1C (centres unmarked) [Eucatropine hydrochloride],387
4,CC(C)(C)NCC(O)COc1cccc2c1CC(O)C(O)C2 (centres unmarked) [Nadolol],411
5,CC[C@H](C)C(=O)O[C@H]1C[C@@H](C)C=C2C=C[C@H](C)[C@H](CC[C@@H]3C[C@@H](O)CC(=O)O3)[C@H]21 [Lovastatin],408
6,CC1(C)O[C@@H]2C[C@H]3[C@@H]4CCC5=CC(=O)CC[C@]5(C)[C@@]4(F)[C@@H](O)C[C@]3(C)[C@]2(C(=O)CCl)O1 [Halcinonide],384
7,Cl.O=C(O)/C=C/c1ccc(Cn2ccnc2)cc1 [Ozagrel hydrochloride],389
8,C[N+]1(C)CCC(OC(=O)C(O)(c2ccccc2)C2CCCC2)C1 (centres unmarked) [Glycopyrrolate],401
9,CC(=O)Nc1c(I)c(C(=O)N[C@H]2C(O)O[C@H](CO)[C@@H](O)[C@@H]2O)c(I)c(N(C)C(C)=O)c1I (some centres unmarked) [Metrizamide],400
10,"COCCc1ccc(OCC(O)CNC(C)C)cc1.COCCc1ccc(OCC(O)CNC(C)C)cc1.O=C(O)C(O)C(O)C(=O)O (racemic) [Metoprolol-(+,-) (+)-tartrate salt]",390
11,COc1ccc(C(=O)NCc2ccc(OCCN(C)C)cc2)cc1OC [Itopride],405
12,CC(=O)[C@@]1(O)CC[C@H]2[C@@H]3C[C@H](C)C4=CC(=O)C=C[C@]4(C)[C@@]3(F)[C@@H](O)C[C@@]21C [Fluorometholone],383
13,C=CC1=C(C(=O)O)N2C(=O)[C@@H](NC(=O)/C(=N\OCC(=O)O)c3csc(N)n3)[C@H]2SC1 [Cefixime],408
14,NNC(=O)c1ccncc1 [Isoniazid],404
15,CNC(=C[N+](=O)[O-])NCCSCc1ccc(CN(C)C)o1 [Ranitidine hydrochloride],405

# Same assay, conditions: 1280-compound library screen; […]
row,Compound,ThS net change
1,S=C(NC1CCCCC1)N1CCC(c2cnc[nH]2)CC1 [Thioperamide maleate],385
2,CN(C)C(=O)Oc1cccc([N+](C)(C)C)c1 [Neostigmine bromide],409

# Same assay, conditions: flag: p-tau aggregation inhibitor, ThS net change more than 3 SD from mean
row,Compound,PTAI>3SD
1,NS(=O)(=O)c1cc2c(cc1Cl)NC(CC1CCCC1)NS2(=O)=O (centres unmarked) [Cyclopenthiazide],*

# Same assay, conditions: library screen, ThS fluorescence net change over 16 h with p-tau
row,Compound,ThS net change
1,CCC(NC(C)C)C(O)c1ccc(O)c(O)c1.CS(=O)(=O)O (centres unmarked) [Isoetharine mesylate salt],313
2,NS(=O)(=O)c1cc2c(cc1Cl)NC(CC1CCCC1)NS2(=O)=O (centres unmarked) [Cyclopenthiazide],0
3,Cc1cc(-c2ccccc2)nnc1NCCN1CCOCC1 [Minaprine dihydrochloride],294
4,CCN(CC)CCNC(=O)c1cc(Cl)c(N)cc1OC.Cl [Metoclopramide monohydrochloride],299
5,CN(C)CCCOc1nn(Cc2ccccc2)c2ccccc12 [Benzydamine hydrochloride],310
6,CN(C)CCC(c1ccccc1)c1ccccn1 (centres unmarked) [Pheniramine maleate],318
7,CN(C)CC/C=C1\c2ccccc2CSc2ccccc21 [Dosulepin hydrochloride],311

# Same assay, conditions: p-tau aggregation modulator screen of 1280-compound library; ThS fluorescence net change
row,Compound,ThS net change
1,CC[C@H]1OC(=O)C[C@@H](O)[C@H](C)[C@@H](O[C@@H]2O[C@H](C)[C@@H](O[C@H]3C[C@@](C)(O)[C@@H](O)[C@H](C)O3)[C@H](N(C)C)[C@H]2O)[C@@H](CC=O)C[C@@H](C)C(=O)/C=C/C(C)=C/[C@@H]1CO[C@@H]1O[C@H](C)[C@@H](O)[C@@H](OC)[C@H]1OC [Tylosin],372
2,CC(C)NCC(O)COc1ccc(CCOCC2CC2)cc1 (centres unmarked) [Betaxolol hydrochloride],373
3,CC(=O)Oc1cc(C(F)(F)F)ccc1C(=O)O [Triflusal],343
4,COc1ccc2cc([C@H](C)C(=O)O)ccc2c1 [Naproxen],371
5,CC(N)CCCC(C)(C)O (centres unmarked) [Heptaminol hydrochloride],362
6,CC(C)(Oc1ccc(Cl)cc1)C(=O)O [Clofibric acid],349
7,CCN(CC)CCOC(=O)c1ccc(N)cc1 [Procaine hydrochloride],362
8,CC(CCc1ccccc1)NCC(O)c1ccc(O)c(C(N)=O)c1 (centres unmarked) [Labetalol hydrochloride],353
9,CCc1cc(Cl)c(OC)c(C(=O)NC[C@@H]2CCCN2CC)c1O.Cl [S(-)Eticlopride hydrochloride],329
10,CCN(CC)CCNC(C(=O)OCCC(C)C)c1ccccc1.Cl.Cl (centres unmarked) [Camylofine chlorhydrate],342
11,COc1ccccc1OCC(O)CO (centres unmarked) [Guaifenesin],376
12,C[C@@H]1CCC[C@H](C)N1NC(=O)c1ccc(Cl)c(S(N)(=O)=O)c1 [Clopamide],369
13,C[C@]12C=CC(=O)C=C1CC[C@@H]1[C@@H]2[C@@H](O)C[C@@]2(C)[C@H]1CC[C@]2(O)C(=O)CO [Prednisolone],351
14,CC(=O)OCC(=O)[C@@]1(O)CC[C@H]2[C@@H]3CCC4=CC(=O)CC[C@]4(C)[C@H]3[C@@H](O)C[C@@]21C [Cortisol acetate],369
15,COC(=O)[C@H]1[C@H]2C[C@@H]3c4[nH]c5cc(OC)ccc5c4CCN3C[C@H]2C[C@@H](OC(=O)c2cc(OC)c(OC)c(OC)c2)[C@@H]1OC [Reserpine],355
16,O=C1CCC(N2C(=O)c3ccccc3C2=O)C(=O)N1 (centres unmarked) [Thalidomide],334
17,NS(=O)(=O)c1cc2c(cc1Cl)NC(C(Cl)Cl)NS2(=O)=O (centres unmarked) [Trichlormethiazide],375
18,C=CC(N)CCC(=O)O (centres unmarked) [Vigabatrin],362
19,CNCC(O)c1ccc(OC(=O)C(C)(C)C)c(OC(=O)C(C)(C)C)c1 (centres unmarked) [Dipivefrin hydrochloride],357
20,C[C@@H]1CC[C@H]2[C@@H](C)C(=O)O[C@@H]3O[C@@]4(C)CC[C@@H]1[C@]32OO4 [Artemisinin],356
21,CN1C(=O)OC(C)(C)C1=O [Trimethadione],346
22,CO[C@@]1(NC(=O)Cc2cccs2)C(=O)N2C(C(=O)O)=C(COC(N)=O)CS[C@@H]21 [Cefoxitin sodium salt],354
23,CC(C)(O/N=C(\C(=O)N[C@@H]1C(=O)N2C(C(=O)[O-])=C(C[n+]3ccccc3)CS[C@H]12)c1csc(N)n1)C(=O)O [Ceftazidime pentahydrate],358
24,CCn1cc(C(=O)O)c(=O)c2cc(F)c(N3CCNCC3)nc21 [Enoxacin],378
25,CS(=O)(=O)O.OC(CCN1CCCCC1)(c1ccccc1)c1ccccc1 [Pridinol methanesulfonate salt],350
26,CC[C@]12CCCN3CCc4c(n(c5ccccc45)[C@@](O)(C(=O)OC)C1)[C@@H]32 [Vincamine],348

# Same assay, conditions: p-tau aggregation modulator screen of 1280-compound library; […]
row,Compound,ThS net change
1,Clc1ccc(C(Cn2ccnc2)OCc2csc3c(Cl)cccc23)c(Cl)c1 (centres unmarked) [Sertaconazole nitrate],344
2,COc1ccc(C(=O)NCc2cccnc2)cc1C(=O)NCc1cccnc1.O [Picotamide monohydrate],355
3,CC[C@@]1([C@@H]2O[C@@H]([C@H]3O[C@@](O)(CO)[C@H](C)C[C@@H]3C)C[C@@H]2C)CC[C@H]([C@]2(C)CC[C@]3(C[C@H](O)[C@@H](C)[C@@H]([C@@H](C)[C@@H](OC)[C@H](C)C(=O)[O-])O3)O2)O1.[Na+] [Monensin sodium salt],342

# Same assay, conditions: p-tau aggregation modulator screen of the compound library, ThS fluorescence net change
row,Compound,ThS net change
1,C#C[C@]1(O)CC[C@H]2[C@@H]3CCC4=CC(=O)CC[C@@H]4[C@H]3CC[C@@]21CC [Norgestrel-(-)-D],424
2,C=C1CC[C@@]2(O)[C@H]3Cc4ccc(O)c5c4[C@@]2(CCN3CC2CC2)[C@H]1O5 [Nalmefene hydrochloride],418
3,Cc1ccnc2c1NC(=O)c1cccnc1N2C1CC1 [Nevirapine],427
4,NC(=O)OCC(O)COc1ccc(Cl)cc1 (centres unmarked) [Chlorphensin carbamate],516
5,O=C(O)CCc1nc(-c2ccccc2)c(-c2ccccc2)o1 [Oxaprozin],425
6,CC(C)Oc1ccc2c(=O)c(-c3ccccc3)coc2c1 [Ipriflavone],429
7,COc1cc(C(=O)NS(=O)(=O)c2ccccc2C)ccc1Cc1cn(C)c2ccc(NC(=O)OC3CCCC3)cc12 [Zafirlukast],549
8,Cc1cccc(CN2CCN(C(c3ccccc3)c3ccc(Cl)cc3)CC2)c1.Cl.Cl (centres unmarked) [Meclozine dihydrochloride],430
9,CCCCC(=O)O[C@H]1CC[C@H]2[C@@H]3CCc4cc(O)ccc4[C@H]3CC[C@]12C [Estradiol Valerate],417
10,Nc1nc(/C(=C/CC(=O)O)C(=O)N[C@@H]2C(=O)N3C(C(=O)O)=CCS[C@H]23)cs1 [Ceftibuten],441
